The target in this experiment is T1, GCase (Homo sapiens, UniProt P04062).
T1 construct: endogenous in cells; host or cells: HeLa cells
T1 sequence (P04062 40-536): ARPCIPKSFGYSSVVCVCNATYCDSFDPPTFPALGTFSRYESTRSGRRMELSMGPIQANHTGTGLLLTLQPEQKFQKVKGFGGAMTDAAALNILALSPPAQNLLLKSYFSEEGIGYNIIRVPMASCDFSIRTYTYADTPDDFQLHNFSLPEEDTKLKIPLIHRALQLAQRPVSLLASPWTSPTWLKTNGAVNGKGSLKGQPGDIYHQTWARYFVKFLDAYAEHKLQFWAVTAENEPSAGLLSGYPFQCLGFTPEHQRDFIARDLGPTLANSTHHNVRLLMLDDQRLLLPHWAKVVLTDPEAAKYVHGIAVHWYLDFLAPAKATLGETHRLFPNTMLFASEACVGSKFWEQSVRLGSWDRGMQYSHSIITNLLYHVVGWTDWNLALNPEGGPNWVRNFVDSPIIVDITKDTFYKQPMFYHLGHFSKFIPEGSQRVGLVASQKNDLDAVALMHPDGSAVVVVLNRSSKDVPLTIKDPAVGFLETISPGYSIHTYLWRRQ
The experiment is described as follows: activation of GCase in a live cell PFB assay in HELA cells. The format is cell-based. On the procedure: Exemplary compounds were evaluated for activation of GCase in a live cell PFB assay in HELA cells (essentially as described in Ysselstein et al., “LRRK2 kinase activity regulates lysosomal glucocerebrosidase in neurons derived from Parkinson's disease patients” Nature Communications (2019) 10:5570). […] EC50 ranges: A: <10 μM; B: >10-50 μM; C: >50-100 μM; D: >100 μM.

The mark [1] stands for this setting: activation of GCase, EC50 ranges.

Structures are written as SMILES.

The term EC50 denotes the concentration needed to bring the measured effect to its halfway point. A low value points to greater potency.

On to `O=C1N(c2ccc(C(F)(F)F)cn2)CCCC12CN(c1cnc3cnn(CC(F)F)c3n1)C2` [Cmpd 341], for which, under setting [1], the EC50 lay in the range of 10 to 50 µM.

The molecule `FC(F)Cn1ncc2ncc(N3CCC4(CC3)CN(c3cncc(C(F)(F)F)c3)C4)nc21` [Compound 69, 7-[1-(2,2-difluoroethyl)-1H-pyrazolo[3,4-b]pyrazin-6-yl]-2-[5-(trifluoromethyl)pyridin-3-yl]-2,7-diazaspiro[3.5]nonane] had an EC50 under setting [1] of 10 to 50 µM.

For the molecule `Cc1cc(N2CCC3(CCN(c4cnc5cnn(CC(F)F)c5n4)CC3)C2)nc(C(F)(F)F)n1` [Cmpd 528], the half-maximal effective concentration (EC50) under setting [1] was < 10 µM.

With `O=C(c1nc2ccccc2cc1C1CC1)N1CCC2(CC1)CCN(c1cc(C(F)(F)F)ccn1)C2=O` [Cmpd 269], the EC50 under setting [1] fell in the range of 10 to 50 µM.

Consider `Cc1nc(N2CC3(CCN(c4cc5c(cn4)cnn5CC(F)F)C3)C2)cc(C(F)(F)F)n1` [Cmpd 631], for which the EC50 (EC50 given as range classes) lay in the range of 10 to 50 µM.

As to `O=C1CC2(CCN(c3cnc4cnn(CC(F)F)c4n3)CC2)CN1Cc1cnc(C(F)(F)F)cn1` [Cmpd 930], the 50% effective concentration (EC50) under setting [1] is 10 to 50 µM.

Turning to `FC(F)Cn1ncc2ccc(N3CCC4(CN(c5ccnc(C(F)(F)F)c5)C4)C3)nc21` [Cmpd 1073], the EC50 under setting [1] is < 10 µM.

On to `FC(F)(F)c1cc(N2CC3(CCN(c4cncc(-c5nnc(C(F)(F)F)o5)n4)C3)C2)ccn1` [Cmpd 1024], for which the EC50 (EC50 given as range classes) was 50 to 100 µM.

Regarding `O=C(c1ccc(Cl)cc1)N1CC2(CCN(c3cnc4cnn(CC(F)F)c4n3)C2)C1` [Cmpd 378], the EC50 (EC50 given as range classes) was > 100 µM.

For the setting “EC50 given as range classes”, `Cc1ccccc1S(=O)(=O)N1CC2(CCN(c3cnc4cnn(CC(F)F)c4n3)C2)C1` [Cmpd 394] registered an EC50 of 10 to 50 µM.

On to `O=C1CC2(CCN(c3cnc4cnn(CC(F)F)c4n3)CC2)CN1Cc1nc(C(F)(F)F)cs1` [Cmpd 368], for which the EC50 under setting [1] was < 10 µM.

On to `CCN1C(=O)N(c2cnc3cnn(CC(F)F)c3n2)C(=O)C12CCN(c1ccc(C(F)(F)F)nc1)CC2` [Cmpd 861], for which the EC50 under setting [1] was < 10 µM.

Turning to `O=C1N(c2cnc3cnn(CC(F)F)c3n2)CCC12CCN(c1ccc(C(F)(F)F)cn1)CC2` [Compound 121, 2-[1-(2,2-difluoroethyl)-1H-pyrazolo[3,4-b]pyrazin-6-yl]-8-[5-(trifluoromethyl)pyridin-2-yl]-2,8-diazaspiro[4.5]decan-1-one], the concentration for a half-maximal effect (EC50) under setting [1] was < 10 µM.

In the case of `Cc1cccc(S(=O)(=O)N2CC3(CCN(c4cnc5cnn(CC(F)F)c5n4)C3)C2)c1` [Cmpd 417], the EC50 (EC50 given as range classes) is < 10 µM.

The molecule `O=C1CC2(CCN1c1cnc3cnn(CC(F)F)c3n1)CN(c1ccc(C(F)(F)F)cn1)C2` [Cmpd 911] gave an EC50 under setting [1] of 10 to 50 µM.

On to `O=C1N(c2cnccc2C(F)(F)F)CCC12CCN(c1cnc3cnn(CC(F)F)c3n1)CC2` [Cmpd 675], for which the EC50 under setting [1] was 10 to 50 µM.

Regarding `O=C(c1ccccc1OC(F)F)N1CC2(CCN(c3cnc4cnn(CC(F)F)c4n3)C2)C1` [Cmpd 389], where the note is “EC50 given as range classes”, the EC50 is < 10 µM.

Consider `FC(F)(F)c1ncc(N2CCC3(CCN(c4cncc(-c5nncs5)n4)CC3)C2)cn1` [Cmpd 823], for which the EC50 (EC50 given as range classes) was in the range of 10 to 50 µM.

In turn, `O=C1CC2(CCN(c3cnc4cnn(CC(F)F)c4n3)CC2)CN1Cc1ccc(F)cn1` [Cmpd 397] had an EC50 (EC50 given as range classes) of 10 to 50 µM.

With `FC(F)Cn1ncc2ncc(N3CCC4(CC3)CN(c3cc(C(F)(F)F)ccn3)C4)nc21` [Compound 1, 7-[1-(2,2-difluoroethyl)-1H-pyrazolo[3,4-b]pyrazin-6-yl]-2-[4-(trifluoromethyl)pyridin-2-yl]-2,7-diazaspiro[3.5]nonane], the EC50 under setting [1] is < 10 µM.

Take `O=C1N(Cc2ccnc(C(F)(F)F)n2)CCC12CCN(c1cnc3cnn(CC(F)F)c3n1)CC2` [Cmpd 844]: the EC50 under setting [1] is < 10 µM.

Take `FC(F)Cn1ncc2ncc(N3CCCC4(CN(c5ccc(C(F)(F)F)cn5)C4)C3)nc21` [Compound 41, 6-[1-(2,2-difluoroethyl)-1H-pyrazolo[3,4-b]pyrazin-6-yl]-2-[5-(trifluoromethyl)pyridin-2-yl]-2,6-diazaspiro[3.5]nonane]: the EC50 under setting [1] fell in the range of 50 to 100 µM.

With `Cc1nc(N2CCC3(CCN(c4ncc5cnn(CC(F)(F)F)c5n4)CC3)C2)cc(C(F)(F)F)n1` [Cmpd 572], the EC50 under setting [1] was < 10 µM.

Take `Cc1nc(N2CC3(CCN(c4cnc5cnn(C6COC6)c5n4)CC3)CC2=O)cc(C(F)(F)F)n1` [Cmpd 457]: the concentration for a half-maximal effect (EC50) under setting [1] was 10 to 50 µM.

Regarding `FC(F)Cn1ncc2ncc(N3CCC4(CC3)CC(Oc3ccnc(C(F)(F)F)c3)C4)nc21` [Cmpd 703], the EC50 under setting [1] was < 10 µM.

`FC(F)Cn1ncc2ncc(N3CCC4(CN(c5ccc(C(F)(F)F)cn5)CCO4)C3)nc21` (stereo not drawn) [Compound 175, 2-[1-(2,2-difluoroethyl)-1H-pyrazolo[3,4-b]pyrazin-6-yl]-9-[5-(trifluoromethyl)pyridin-2-yl]-6-oxa-2,9-diazaspiro[4.5]decane] yielded an EC50 under setting [1] of 50 to 100 µM.

On to `Cc1nc(N2CC3(CCN(c4cc5c(cn4)c(C)nn5CC(F)F)CC3)CC2=O)cc(C(F)(F)F)n1` [Cmpd 614], for which the EC50 (EC50 given as range classes) fell in the range of 10 to 50 µM.

Turning to `O=C1N(c2cnc3cnn(CC(F)F)c3n2)CCC12CCN(c1cnc(C(F)(F)F)cn1)CC2` [Cmpd 772], the EC50 under setting [1] is > 100 µM.

Consider `O=C1N(c2cnc3cnn(CC(F)F)c3n2)CCC12CCN(c1cccc(C(F)(F)F)n1)CC2` [Compound 99, 2-[1-(2,2-difluoroethyl)-1H-pyrazolo[3,4-b]pyrazin-6-yl]-8-[6-(trifluoromethyl)pyridin-2-yl]-2,8-diazaspiro[4.5]decan-1-one], for which the EC50 under setting [1] was < 10 µM.

Turning to `CCc1csc(CN2CCC3(CCN(c4cnc5cnn(CC(F)F)c5n4)CC3)C2=O)n1` [Cmpd 364], the EC50 under setting [1] is < 10 µM.

In turn, `FC(F)Cn1ncc2ncc(NC3CCC4(CC3)CN(c3cccnc3C(F)(F)F)C4)nc21` [Compound 109, N-[1-(2,2-difluoroethyl)-1H-pyrazolo[3,4-b]pyrazin-6-yl]-2-[2-(trifluoromethyl)pyridin-3-yl]-2-azaspiro[3.5]nonan-7-amine] had an EC50 under setting [1] of 10 to 50 µM.

With `O=C1CC2(CCN(c3cnc4cnn(CC(F)F)c4n3)CC2)CN1Cc1ncc(C(F)(F)F)cc1F` [Cmpd 963], the EC50 under setting [1] is < 10 µM.

For `FC(F)Cn1ncc2ncc(N3CCC4(CN(c5ccc(C(F)(F)F)nc5)CCO4)C3)nc21` (stereo not drawn) [Compound 176, 2-[1-(2,2-difluoroethyl)-1H-pyrazolo[3,4-b]pyrazin-6-yl]-9-[6-(trifluoromethyl)pyridin-3-yl]-6-oxa-2,9-diazaspiro[4.5]decane], the EC50 under setting [1] is > 100 µM.

On to `O=C1CC2(CCN(c3cnc4cnn(CC(F)F)c4n3)CC2)C(CCF)N1c1ccnc(C(F)(F)F)c1` (stereo not drawn) [Cmpd 954], for which, under setting [1], the EC50 was 10 to 50 µM.

Turning to `FC(F)Cn1ncc2ncc(N3CC4(CCN(c5cc(C(F)(F)F)ccn5)C4)C3)nc21` [Compound 181, 2-[1-(2,2-difluoroethyl)-1H-pyrazolo[3,4-b]pyrazin-6-yl]-6-[4-(trifluoromethyl)pyridin-2-yl]-2,6-diazaspiro[3.4]octane], the EC50 (EC50 given as range classes) lay in the range of 10 to 50 µM.

Regarding `Cn1c(=O)n(C2COC2)c2nc(N3CCC4(CN(c5ccnc(C(F)(F)F)c5)C4)C3)ncc21` [Cmpd 1141], under setting [1], the EC50 is < 10 µM.

On to `Cc1ncc(N2CCC3(CCN(c4cnc5cnn(CC(F)F)c5n4)CC3)C2)nc1C(F)(F)F` [Cmpd 764], for which, under setting [1], the EC50 is < 10 µM.

As to `Cc1nn(CC(F)F)c2nc(N3CCC4(CC3)CC(=O)N(c3ccc(C(F)(F)F)nc3)C4)ncc12` [Cmpd 832], the EC50 (EC50 given as range classes) is < 10 µM.

For `O=C1N(c2cnc3cnn(CC(F)F)c3n2)CCC12CCN(c1ccc(C(F)(F)F)nc1)CC2` [Compound 119, 2-[1-(2,2-difluoroethyl)-1H-pyrazolo[3,4-b]pyrazin-6-yl]-8-[6-(trifluoromethyl)pyridin-3-yl]-2,8-diazaspiro[4.5]decan-1-one], the EC50 under setting [1] was < 10 µM.

Under setting [1], `O=C(Cc1csc(-c2ccccc2)n1)N1CCCC2(C1)CN(c1ccccc1)C2` [Compound 57, 2-(2-phenyl-1,3-thiazol-4-yl)-1-{2-phenyl-2,6-diazaspiro[3.5]nonan-6-yl}ethan-1-one] showed an EC50 of 10 to 50 µM.

Under setting [1], `FC(F)Cn1ncc2ncc(N3CCCC4(CN(c5cncc(C(F)(F)F)c5)C4)C3)nc21` [Compound 15, 6-[1-(2,2-difluoroethyl)-1H-pyrazolo[3,4-b]pyrazin-6-yl]-2-[5-(trifluoromethyl)pyridin-3-yl]-2,6-diazaspiro[3.5]nonane] displayed an EC50 of 10 to 50 µM.

In the case of `FC(F)Cn1ncc2ncc(N3CCC4(CCN(c5ccc(C(F)(F)F)cn5)C4)C3)nc21` (stereo not drawn) [Cmpd 483], the EC50 under setting [1] is 10 to 50 µM.

For the molecule `FC(F)(F)OCCn1ncc2ncc(N3CCC4(CN(c5ccnc(C(F)(F)F)c5)C4)C3)nc21` [Cmpd 1034], the EC50 under setting [1] was < 10 µM.

With `CC(c1cnc(C(F)(F)F)nc1)N1CC2(CCN(c3cnc4cnn(CC(F)F)c4n3)CC2)CC1=O` (stereo not drawn) [Cmpd 914], under setting [1], the EC50 fell in the range of 10 to 50 µM.

For `O=C1CC2(CCN(c3ncc4cnn(CC(F)F)c4n3)CC2)CN1c1cc(C(F)(F)F)ccn1` [Cmpd 286], under setting [1], the EC50 was < 10 µM.

Molecule `O=C1N(c2ccc(C(F)(F)F)cn2)CCC12CCN(c1cnc3cnn(CC(F)F)c3n1)CC2` [Cmpd 678] had an EC50 under setting [1] of 10 to 50 µM.

`Cc1nc(N2CC3(CCN(c4cnc5cnn([C@@H]6CCOC6)c5n4)C3)C2)cc(C(F)(F)F)n1` [Cmpd 1144]: the EC50 under setting [1] is < 10 µM.

`Cc1nc(N2CCC3(CCN(c4cnc5cnn(C6COC6)c5n4)C3)C2)cc(C(F)(F)F)n1` (stereo not drawn) [Cmpd 542]: the EC50 under setting [1] was < 10 µM.

These data come from patent publication US20250034170A1, “SMALL MOLECULE MODULATORS OF GLUCOCEREBROSIDASE ACTIVITY AND USES THEREOF” (Vanqua Bio, Inc., priority 2021, published 2025).
